Like-named read-outs stand apart in the source and are kept apart here.
System: HIV-IIIb
Assay: Test A: Antiviral Assay in MT4 Cells
Assay type: cell-based
Conditions: Human immunodeficiency virus 1, IIIB, MT4, 120 h
How it was run: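 Read-out: CellTiter-Glo chemiluminescence after 5-day incubation at 37 °C. Compounds tested as 3-fold serial dilutions (10 concentrations, quadruplicate) in RPMI 1640 with 10% FBS, on MT-4 cells pre-infected at 37 °C with HIV-IIIb at 0.004 m.o.i.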

[1] = Table 2, MT-4 cells infected with HIV-IIIb, 5 days of incubation, CellTiter-Glo, read-out: EC50

| SMILES | EC50 [1] [nM] | EC50 [nM] |
| --- | --- | --- |
| Cc1cc2nc(-c3ccc4c(c3)nc(C)n4C)sc2c(-c2ccc(Cl)cc2)c1[C@H](OC(C)(C)C)C(=O)O [Compound 217, (S)-2-tert-butoxy-2-(7-(4-chlorophenyl)-2-(1,2-dimethyl-1H-benzo[d]imidazol-5-yl)-5-methylbenzo[d]thiazol-6-yl)acetic acid] | 7 | – |
| Cc1cc2nc(-c3ccnc(N4CCOCC4)c3)sc2c(-c2ccc(Cl)cc2)c1[C@H](OC(C)(C)C)C(=O)O [Compound 218, (S)-2-tert-butoxy-2-(7-(4-chlorophenyl)-5-methyl-2-(2-morpholinopyridin-4-yl)benzo[d]thiazol-6-yl)acetic acid] | 116 | – |
| Cc1cc2nc(-c3ccnc(N4CCN(C)CC4)c3)sc2c(-c2ccc(Cl)cc2)c1[C@H](OC(C)(C)C)C(=O)O [Compound 219, (S)-2-tert-butoxy-2-(7-(4-chlorophenyl)-5-methyl-2-(2-(4-methylpiperazin-1-yl)pyridin-4-yl)benzo[d]thiazol-6-yl)acetic acid] | 39 | – |
| CCN1CCN(c2cc(-c3nc4cc(C)c([C@H](OC(C)(C)C)C(=O)O)c(-c5ccc(Cl)cc5)c4s3)ccn2)CC1 [Compound 220, (S)-2-tert-butoxy-2-(7-(4-chlorophenyl)-2-(2-(4-ethylpiperazin-1-yl)pyridin-4-yl)-5-methylbenzo[d]thiazol-6-yl)acetic acid] | 43 | – |
| Cc1cc2nc(-c3ccnc(N4CCN(C(C)C)CC4)c3)sc2c(-c2ccc(Cl)cc2)c1[C@H](OC(C)(C)C)C(=O)O [Compound 221, (S)-2-tert-butoxy-2-(7-(4-chlorophenyl)-2-(2-(4-isopropylpiperazin-1-yl)pyridin-4-yl)-5-methylbenzo[d]thiazol-6-yl)acetic acid] | 24 | – |
| Cc1cc2nc(-c3ccnc(N4CCn5c(nnc5C(F)(F)F)C4)c3)sc2c(-c2ccc(Cl)cc2)c1[C@H](OC(C)(C)C)C(=O)O [Compound 222, (S)-2-tert-butoxy-2-(7-(4-chlorophenyl)-5-methyl-2-(2-(3-(trifluoromethyl)-5,6-dihydro-[1,2,4]triazolo[4,3-a]pyrazin-7(8H)-yl)pyridin-4-yl)benzo[d]thiazol-6-yl)acetic acid] | – | 49 |
| Cc1cc2nc(-c3ccnc(N4CCn5cnnc5C4)c3)sc2c(-c2ccc(Cl)cc2)c1[C@H](OC(C)(C)C)C(=O)O [Compound 223, (S)-2-tert-butoxy-2-(7-(4-chlorophenyl)-2-(2-(5,6-dihydro-[1,2,4]triazolo[4,3-a]pyrazin-7(8H)-yl)pyridin-4-yl)-5-methylbenzo[d]thiazol-6-yl)acetic acid] | 312 | – |
| Cc1cc2nc(-c3ccnc(N4CCc5c(c(C)nn5C)C4)c3)sc2c(-c2ccc(Cl)cc2)c1[C@H](OC(C)(C)C)C(=O)O [Compound 224, (S)-2-tert-butoxy-2-(7-(4-chlorophenyl)-2-(2-(1,3-dimethyl-6,7-dihydro-1H-pyrazolo[4,3-c]pyridin-5(4H)-yl)pyridin-4-yl)-5-methylbenzo[d]thiazol-6-yl)acetic acid] | 12 | – |
| Cc1cc2nc(-c3ccnc(-c4ccc5c(F)nn(C)c5c4)c3)sc2c(-c2ccc(Cl)cc2)c1[C@H](OC(C)(C)C)C(=O)O [Compound 225, (S)-2-tert-butoxy-2-(7-(4-chlorophenyl)-2-(2-(3-fluoro-1-methyl-1H-indazol-6-yl)pyridin-4-yl)-5-methylbenzo[d]thiazol-6-yl)acetic acid] | 96 | – |
| CCc1cnn2cc(-c3cc(-c4nc5cc(C)c([C@H](OC(C)(C)C)C(=O)O)c(-c6ccc(Cl)cc6)c5s4)ccn3)cnc12 [Compound 226, (S)-2-tert-butoxy-2-(7-(4-chlorophenyl)-2-(2-(3-ethylpyrazolo[1,5-a]pyrimidin-6-yl)pyridin-4-yl)-5-methylbenzo[d]thiazol-6-yl)acetic acid] | 36 | – |
| CCc1cnn2cc(-c3nc4cc(C)c([C@H](OC(C)(C)C)C(=O)O)c(-c5ccc(Cl)cc5)c4s3)cnc12 [Compound 227, (S)-2-tert-butoxy-2-(7-(4-chlorophenyl)-2-(3-ethylpyrazolo[1,5-a]pyrimidin-6-yl)-5-methylbenzo[d]thiazol-6-yl)acetic acid] | 85 | – |
| Cc1cc2nc(-c3cccc(-n4cc(C)c(=O)[nH]c4=O)c3)sc2c(-c2ccc(Cl)cc2)c1[C@H](OC(C)(C)C)C(=O)O [Compound 228, (S)-2-tert-butoxy-2-(7-(4-chlorophenyl)-5-methyl-2-(3-(5-methyl-2,4-dioxo-3,4-dihydropyrimidin-1(2H)-yl)phenyl)benzo[d]thiazol-6-yl)acetic acid] | 910 | – |
| Cc1cc2nc(-c3cccc(-n4ccc(=O)[nH]c4=O)c3)sc2c(-c2ccc(Cl)cc2)c1[C@H](OC(C)(C)C)C(=O)O [Compound 229, (S)-2-tert-butoxy-2-(7-(4-chlorophenyl)-2-(3-(2,4-dioxo-3,4-dihydropyrimidin-1(2H)-yl)phenyl)-5-methylbenzo[d]thiazol-6-yl)acetic acid] | 1740 | – |
| Cc1cc2nc(-c3ccnc(-c4ccc(=O)[nH]c4)c3)sc2c(-c2ccc(Cl)cc2)c1[C@H](OC(C)(C)C)C(=O)O [Compound 230, (S)-2-tert-butoxy-2-(7-(4-chlorophenyl)-5-methyl-2-(2-(6-oxo-1,6-dihydropyridin-3-yl)pyridin-4-yl)benzo[d]thiazol-6-yl)acetic acid] | 131 | – |
| Cc1cc2nc(-c3ccnc(-c4ccc[nH]c4=O)c3)sc2c(-c2ccc(Cl)cc2)c1[C@H](OC(C)(C)C)C(=O)O [Compound 232, (S)-2-tert-butoxy-2-(7-(4-chlorophenyl)-5-methyl-2-(2-(2-oxo-1,2-dihydropyridin-3-yl)pyridin-4-yl)benzo[d]thiazol-6-yl)acetic acid] | 86 | – |
| COc1ncccc1-c1cc(-c2nc3cc(C)c([C@H](OC(C)(C)C)C(=O)O)c(-c4ccc(Cl)cc4)c3s2)ccn1 [Compound 233, (S)-2-tert-butoxy-2-(7-(4-chlorophenyl)-2-(2′-methoxy-2,3′-bipyridin-4-yl)-5-methylbenzo[d]thiazol-6-yl)acetic acid] | 33 | – |
| Cc1cc2nc(-c3ccnc(-c4cc5c(C)nn(C)c5cn4)c3)sc2c(-c2ccc(Cl)cc2)c1[C@H](OC(C)(C)C)C(=O)O [Compound 234, (S)-2-tert-butoxy-2-(7-(4-chlorophenyl)-2-(2-(1,3-dimethyl-1H-pyrazolo[3,4-c]pyridin-5-yl)pyridin-4-yl)-5-methylbenzo[d]thiazol-6-yl)acetic acid] | 13 | – |
| Cc1cc2nc(-c3cc4c(C)nn(C)c4cn3)sc2c(-c2ccc(Cl)cc2)c1[C@H](OC(C)(C)C)C(=O)O [Compound 235, (S)-2-tert-butoxy-2-(7-(4-chlorophenyl)-2-(1,3-dimethyl-1H-pyrazolo[3,4-c]pyridin-5-yl)-5-methylbenzo[d]thiazol-6-yl)acetic acid] | 14 | – |
| Cc1cc2nc(-c3ccnc(-c4cccc5c4CC(=O)N5C)c3)sc2c(-c2ccc(Cl)cc2)c1[C@H](OC(C)(C)C)C(=O)O [Compound 236, (S)-2-tert-butoxy-2-(7-(4-chlorophenyl)-5-methyl-2-(2-(1-methyl-2-oxoindolin-4-yl)pyridin-4-yl)benzo[d]thiazol-6-yl)acetic acid] | 31 | – |
| Cc1cc2nc(-c3ccnc(-c4ccc5c(c4)CC(=O)N5C)c3)sc2c(-c2ccc(Cl)cc2)c1[C@H](OC(C)(C)C)C(=O)O [Compound 237, (S)-2-tert-butoxy-2-(7-(4-chlorophenyl)-5-methyl-2-(2-(1-methyl-2-oxoindolin-5-yl)pyridin-4-yl)benzo[d]thiazol-6-yl)acetic acid] | 10 | – |
| Cc1cc2nc(-c3ccc4c(c3)CC(=O)N4C)sc2c(-c2ccc(Cl)cc2)c1[C@H](OC(C)(C)C)C(=O)O [Compound 239, (S)-2-tert-butoxy-2-(7-(4-chlorophenyl)-5-methyl-2-(1-methyl-2-oxoindolin-5-yl)benzo[d]thiazol-6-yl)acetic acid] | 26 | – |
| Cc1cc2nc(-c3ccc4c(c3)CC(=O)N4)sc2c(-c2ccc(Cl)cc2)c1[C@H](OC(C)(C)C)C(=O)O [Compound 240, (S)-2-tert-butoxy-2-(7-(4-chlorophenyl)-5-methyl-2-(2-oxoindolin-5-yl)benzo[d]thiazol-6-yl)acetic acid] | 76 | – |
| Cc1cc2nc(-c3ccnc(N4Cc5ccncc5C4=O)c3)sc2c(-c2ccc(Cl)cc2)c1[C@H](OC(C)(C)C)C(=O)O [Compound 241, (S)-2-tert-butoxy-2-(7-(4-chlorophenyl)-5-methyl-2-(2-(3-oxo-1H-pyrrolo[3,4-c]pyridin-2(3H)-yl)pyridin-4-yl)benzo[d]thiazol-6-yl)acetic acid] | 3 | – |
| Cc1ccc2c(c1)CCN2c1nc2cc(C)c([C@H](OC(C)(C)C)C(=O)O)c(-c3ccc(Cl)cc3)c2s1 [Compound 243, (S)-2-tert-butoxy-2-(7-(4-chlorophenyl)-5-methyl-2-(5-methylindolin-1-yl)benzo[d]thiazol-6-yl)acetic acid] | 424 | – |
| Cc1cc2nc(-c3ccnc(N4CCc5cnccc54)c3)sc2c(-c2ccc(Cl)cc2)c1[C@H](OC(C)(C)C)C(=O)O [Compound 245, (S)-2-tert-butoxy-2-(7-(4-chlorophenyl)-2-(2-(2,3-dihydro-1H-pyrrolo[3,2-c]pyridin-1-yl)pyridin-4-yl)-5-methylbenzo[d]thiazol-6-yl)acetic acid] | 9 | – |
| Cc1cc2nc(-c3nc(N4CCN(C(C)C)CC4)cs3)sc2c(-c2ccc(Cl)cc2)c1[C@H](OC(C)(C)C)C(=O)O [Compound 246, (S)-2-tert-butoxy-2-(7-(4-chlorophenyl)-2-(4-(4-isopropylpiperazin-1-yl)thiazol-2-yl)-5-methylbenzo[d]thiazol-6-yl)acetic acid] | 9 | – |
| Cc1cc2nc(-c3nc(N4CCN(C)CC4)cs3)sc2c(-c2ccc(Cl)cc2)c1[C@H](OC(C)(C)C)C(=O)O [Compound 247] | 10 | – |
| Cc1cc2nc(-c3ccc4c(c3)CN(C)C4=O)sc2c(-c2ccc(Cl)cc2)c1[C@H](OC(C)(C)C)C(=O)O [Compound 248, (S)-2-tert-butoxy-2-(7-(4-chlorophenyl)-5-methyl-2-(2-methyl-1-oxoisoindolin-5-yl)benzo[d]thiazol-6-yl)acetic acid] | 13 | – |
